Source: ChEMBL document CHEMBL5724696, “Autophagy assay results for EUbOPEN Chemogenomics Library” (2024)
Where “and” joins values, the source holds several entries; their conditions need not be identical. Identical values can stand only once.

Tests used:
Format in all cases: functional, Homo sapiens
TERT-RPE1 = experiment: (§1) Here: values are normalized to the negative (DMSO; defined as 0% autophagy induction) and positive (250nM Torin1; mTOR inhibitor; defined as maximal inducer of autophagy = 100%) control compounds and represented as % of autophagy induction. […] The impact of autophagy induction on cells is complex and depends on the affected target. As such, the magnitude of a phenotype may not be equally mirrored in the %-value of autophagy induction and vice versa. The dynamics of the induction may indicate the mode of activation: e.g. activation via phosphorylation or a signaling cascade may occur fast, while activation via transcription factors may take considerably longer. […] Of note, treatment concentrations may be sub-optimal for specific compounds, leading to false negative annotations.; conditions: Culturing Media DMEM/F12 (1:1), 1 % Penicillin/Streptomycin, 10% Fetal bovin serum Add-On: No, Screening Media Control DMEM/F12 (1:1), Screening Media Samples DMEM/F12 (1:1)
U2OS [1] = experiment: as §1; conditions: Culturing Media DMEM, 1 % Penicillin/Streptomycin, 10% Fetal bovin serum Add-On: No, Screening Media Control DMEM, Screening Media Samples DMEM
U2OS [2] = experiment: as §1; conditions: Culturing Media DMEM, 1 % Penicillin/Streptomycin, 10% Fetal bovin serum Add-On: No, Screening Media Control DMEM, Screening Media Samples DMEM; remark: listed apart in the source
[3] = Compound Concentration 0.5 uM, Timepoint 12 hours
[4] = Compound Concentration 0.5 uM, Timepoint 24 hours
[5] = Compound Concentration 0.5 uM, Timepoint 36 hours
[6] = Compound Concentration 0.5 uM, Timepoint 60 hours
[7] = Compound Concentration 2 uM, Timepoint 12 hours
[8] = Compound Concentration 2 uM, Timepoint 24 hours
[9] = Compound Concentration 2 uM, Timepoint 36 hours
[10] = Compound Concentration 2 uM, Timepoint 60 hours
[11] = Compound Concentration 10 uM, Timepoint 12 hours
[12] = Compound Concentration 10 uM, Timepoint 24 hours
[13] = Compound Concentration 10 uM, Timepoint 36 hours
[14] = Compound Concentration 10 uM, Timepoint 60 hours

SMILES	autophagy induction (U2OS [1]; [3])	autophagy induction (U2OS [1]; [4])	autophagy induction (U2OS [1]; [5])	autophagy induction (U2OS [1]; [6])	autophagy induction (U2OS [1]; [7])	autophagy induction (U2OS [1]; [8])	autophagy induction (U2OS [1]; [9])	autophagy induction (U2OS [1]; [10])	autophagy induction (U2OS [1]; [11])	autophagy induction (U2OS [1]; [12])	autophagy induction (U2OS [1]; [13])	autophagy induction (U2OS [1]; [14])	autophagy induction (U2OS [2]; [3])	autophagy induction (U2OS [2]; [4])	autophagy induction (U2OS [2]; [5])	autophagy induction (U2OS [2]; [6])	autophagy induction (U2OS [2]; [7])	autophagy induction (U2OS [2]; [8])	autophagy induction (U2OS [2]; [9])	autophagy induction (U2OS [2]; [10])	other results
CN(C)S(=O)(=O)c1ccc(NC(=S)N2CCC(C(O)(c3ccccc3)c3ccccc3)CC2)cc1	-3.164%	1.478%	0.3125%	1.161%	-4.133%	-2.924%	-1.588%	-1.351%	-4.693%	-0.2636%	0.0362%	-2.232%	4.873%	8.285%	-1.545%	-6.741%	-9.723%	-10.0932%	-2.641%	-5.443%	autophagy induction (TERT-RPE1; [3]): -8.089%; autophagy induction (TERT-RPE1; [4]): -8.809%; autophagy induction (TERT-RPE1; [5]): -7.846%; autophagy induction (TERT-RPE1; [6]): -8.279%; autophagy induction (TERT-RPE1; [7]): -6.98%; autophagy induction (TERT-RPE1; [8]): -8.186%; autophagy induction (TERT-RPE1; [9]): -8.002%; autophagy induction (TERT-RPE1; [10]): -9.897%; autophagy induction (TERT-RPE1; [11]): -4.6942%; autophagy induction (TERT-RPE1; [12]): -5.029%; autophagy induction (TERT-RPE1; [13]): -1.466%; autophagy induction (TERT-RPE1; [14]): -2.059%; autophagy induction (U2OS [2]; [11]): -2.358%; autophagy induction (U2OS [2]; [12]): -3.276%; autophagy induction (U2OS [2]; [13]): -0.5558%; autophagy induction (U2OS [2]; [14]): -1.95%
CCCCC#Cc1nc(NC)c2ncn([C@@H]3O[C@H](CO)[C@@H](O)[C@H]3O)c2n1	7.971%	2.814%	-58.1103%	-0.9818%	3.199%	-2.198%	-60.437%	-1.323%	0.2414%	-3.3271%	-60.2602%	-0.5763%	1.872%	-1.476%	-3.077%	-6.595%	-4.8354%	-5.442%	-4.18%	-14.3215%	autophagy induction (TERT-RPE1; Compound Concentration 0.5 uM, Timepoint 12 hours, 12 h, 0.5 µM): -2.336% and -0.4442%; autophagy induction (TERT-RPE1; Compound Concentration 0.5 uM, Timepoint 24 hours, 24 h, 0.5 µM): -5.778% and -2.388%; autophagy induction (TERT-RPE1; Compound Concentration 0.5 uM, Timepoint 36 hours, 36 h, 0.5 µM): -6.915% and -5.4%; autophagy induction (TERT-RPE1; Compound Concentration 0.5 uM, Timepoint 60 hours, 60 h, 0.5 µM): -6.339% and -4.703%; autophagy induction (TERT-RPE1; Compound Concentration 2 uM, Timepoint 12 hours, 12 h, 2 µM): 2.252% and 1.572%; autophagy induction (TERT-RPE1; Compound Concentration 2 uM, Timepoint 24 hours, 24 h, 2 µM): 3.405% and -0.3092%; autophagy induction (TERT-RPE1; Compound Concentration 2 uM, Timepoint 36 hours, 36 h, 2 µM): 0.8288% and 0.6571%; autophagy induction (TERT-RPE1; Compound Concentration 2 uM, Timepoint 60 hours, 60 h, 2 µM): 0.7882% and 0.00413%; autophagy induction (TERT-RPE1; Compound Concentration 10 uM, Timepoint 12 hours, 12 h, 10 µM): 9.462% and -4.43%; autophagy induction (TERT-RPE1; Compound Concentration 10 uM, Timepoint 24 hours, 24 h, 10 µM): 9.8196% and -3.782%; autophagy induction (TERT-RPE1; Compound Concentration 10 uM, Timepoint 36 hours, 36 h, 10 µM): 10.3694% and -2.886%; autophagy induction (TERT-RPE1; Compound Concentration 10 uM, Timepoint 60 hours, 60 h, 10 µM): 10.0597% and -2.862%; autophagy induction (U2OS [2]; [11]): -0.5241%; autophagy induction (U2OS [2]; [12]): -0.2798%; autophagy induction (U2OS [2]; [13]): -5.149%; autophagy induction (U2OS [2]; [14]): -3.023%
